Reference: US8367069B2, “Cytotoxic T cell defined EGFR peptide and an optimized derivative peptide” (University of Pittsburgh—of the Commonwealth System of …, priority 2008, dated 2013)

How the values were obtained:
T2 cells = experiment: IFN-γ ELISPOT, CTL recognition of polypeptide pulsed T2 cells; type: cell-based, human; conditions: T2 cells pulsed with the polypeptide; 10 μg/ml at 37° C.
Method: In vitro stimulation (IVS) was performed using EGFR853-861 (i.e., SEQ ID NO: 1, wherein the residue at position 2 is threonine) or EGFR853-861L (i.e., SEQ ID NO: 1, wherein the residue at position 2 is leucine) to induce cytotoxic T lymphocytes (CTL) using CD8+PBMC from five HLA-A*0201^+ healthy donors and one head and neck squamous cell carcinoma (SCCHN) patient. The resulting EGFR-specific CTL were tested for EGFR853-861 specificity and HLA class I antigen restriction using polypeptide pulsed T2 cells. CTL generated against EGFR853-861 polypeptide recognized T2 cells pulsed with either EGFR853-861 or EGFR853-861L polypeptide, but not T2 cells alone or T2 cells incubated with the HIV Pol476-484 polypeptide (10 μg/ml at 37° C.) (see FIGS. 6A and 6B). […]
PBMCs were isolated by density centrifugation on Ficoll-Paque™ PLUS (GE Healthcare Bio-Science AB; SE-751 84 Uppsala) and used to prepare mature DCs using methods described in the art. […] The stimulated CD8^+ T cells were analyzed for specificity in IFN-γ ELISPOT and ^51Cr release assays at day 21 and then every 7 days thereafter.
The recognition of APCs pulsed with polypeptide (EGFR853-861 or EGFR853-861L) and head and neck tumor cells was assessed by ELISPOT assays specific for hu-IFN-γ. […]

EGFR family = experiment: Cross-reactivity of polypeptide-derived CTL; type: cell-based, human
HLA-A*0201 = HLA-A*0201 (Homo sapiens, UniProt P04439, D140Y/D185E/D98H/E176V/E277Q/G131W/G231S/I119V/I121R/I166T/I218V/L300P/L318F/N151K/N90K/P208A/P217A/Q86G/Q94H/R138H/R169H/T345S); conditions: cited from earlier work
PCI-30 = experiment: IFN-γ ELISPOT, stimulated CD8+ T cells against PCI-30 head and neck tumor cells; type: cell-based, human; conditions: substance added to CTL plus PCI-30 cells
Method: PBMCs were isolated by density centrifugation on Ficoll-Paque™ PLUS (GE Healthcare Bio-Science AB; SE-751 84 Uppsala) and used to prepare mature DCs using methods described in the art. PBMCs were resuspended at 5×10^7/ml in AIM-V medium (Invitrogen) and were incubated for 90 min in 75-cm^2 tissue culture flasks or six-well plates (37° C.; 5% CO2). Non-adherent (T cell-enriched) cells were gently washed out with HBSS and subsequently frozen. The plastic adherent cells were cultured in AIM-V medium supplemented with 1000 units/ml rhGM-CSF and 1000 units/ml rhIL-4. […] The stimulated CD8^+ T cells were analyzed for specificity in IFN-γ ELISPOT and ^51Cr release assays at day 21 and then every 7 days thereafter.
After incubation at 37° C. in 5% CO2 for 40 hours (IFN-γ ELISPOT assays), cells were removed by washings with PBS-0.05% Tween 20 (PBS-T). Captured cytokine was detected at sites of its secretion by incubation for 4 hours with biotinylated mAb anti-hIFN-γ (7-B6-1; Mabtech) at 2 μg/ml in PBS-0.5% BSA. […] Spot numbers and spot sizes were automatically determined with the use of computer-assisted video image analysis.

In the case of “HIV Pol476-484: negative control peptide (AGADRQGTV; UniProt P04585 476-484, looked up, fragment)”, the “recognition of polypeptide pulsed T2 cells by CTL generated against EGFR853-861” value (T2 cells) is reported as “not”.

For ITDFGLARL [HER2861-869], the “cross-reactivity of CTL derived from the polypeptide” value (EGFR family) is listed as “demonstrated cross-reactivity” and the “HLA-A*0201 binding” value (HLA-A*0201) is listed as “binds”.

In the case of panitumumab, the “change in IFN-γ spots on addition to CTLs (stimulated with EGFR853-861) and PCI-30 cells” value (PCI-30) is reported as “increased”.
